# Results as given in patent publication US20240294881A1, “CELL CULTURE SUPPLEMENT FOR PRODUCING STEM CELLS, AND METHOD FOR PRODUCING STEM CELLS” (OPTICELL, INC, priority 2021, published 2024).
# How the values were obtained:
# Assay type in all cases: cell-based
# [1] = tested on: healthy human neonatal fibroblasts; test: Immunostaining of stem cell marker proteins in neonatal fibroblast spheroids
# Protocol: To confirm whether stem cells were induced in fibroblast spheroids, the expression of stem cell marker proteins was examined by immunostaining with fluorescent dye-labeled antibodies. An aqueous solution of the polypeptide represented by formula (1) (0.125%) (cell culture supplement) was added to a commercial polystyrene-made 96-well round-bottom culture vessel (Nunclon Delta 96U Bottom, Thermo Fisher Scientific) at 100 μL/well, and the coating treatment with the cell culture supplement was completed in the same manner as in Example 2. Fibroblasts were maintained and cultured in a serum-free medium (Fujifilm Wako Pure Chemical Corporation; DMEM/F12 medium, human serum albumin recombinant 0.5 mg/ml, human transferrin recombinant 10 μg/mL, basic-FGF 5 ng/ml, and insulin 2.5 μg/mL). Fibroblasts floating in the medium were seeded in the culture vessel coated with the cell culture supplement at 4×10^4 cells/well/100 μL and cultured at 37° C. under 5% CO2 conditions. Spheroids were collected from the 96-well round-bottom culture vessel on day 20 from the start of culture, and cell fixation was performed with a 4% paraformaldehyde solution, followed by immunostaining. For fluorescence-labeled antibodies, three antibodies for detection of human stem cell marker proteins (NL557 fluorescent dye-labeled anti-SOX2 antibody (fluorescent orange), NL493 fluorescent dye-labeled anti-NANOG antibody (fluorescent green), and NL637-labeled anti-OCT4 antibody (fluorescent red), R&D Systems)) were used and reacted simultaneously to perform observation with a fluorescence microscope.
# [2] = tested on: healthy human neonatal fibroblasts; test: Real-time PCR of undifferentiated stem cell marker genes in neonatal fibroblast spheroids (6-well flat-bottom); conditions: day 20 of 3D spheroid culture, coated 6-well flat-bottom; control without supplement = 1.0; ΔΔCt, β-actin
# Protocol: 2 mL of an aqueous solution of the polypeptide represented by formula (1) (0.125%) (cell culture supplement) was added to a commercial polystyrene-made 6-well flat-bottom culture vessel (CellBIND, Corning) and allowed to stand at 4° C. for 24 hours.
# Thereafter, the excess cell culture supplement was removed, and the remaining solution was dried in a dryer at 37° C. for 96 hours to complete coating treatment with the cell culture supplement. Healthy human neonatal fibroblasts (ATCC PCS-201-010, primary dermal fibroblasts, neonatal, referred to as “fibroblasts” below) were maintained and cultured in a serum-free medium (Promo Cell; fibroblast basal medium, basic-FGF 5 ng/mb and insulin 2.5 μg/mL). The fibroblasts floating in 2 mL of the medium were seeded in the culture vessel coated with the cell culture supplement at 2×10^6 cells/well and cultured at 37° C. under 5% CO2 conditions. For a control, fibroblasts were seeded in a culture vessel of the same type with no coating applied with the cell culture supplement (2×10^6 cells/well). Observation was performed with a microscope on day 2 and day 20 after the start of culture to capture images of spheroid formation (FIG. 5). […]
# Specifically, a NucleoZOL reagent (Macherey-Nagel) was added to each type of cells, and total-RNA was extracted according to the protocol recommended by the reagent manufacturer and used as template RNA for detecting undifferentiated stem cell markers. For real-time PCR analysis, PCR probes from QuantiFast Probe RT-PCR Kits (QTAGEN; No. 204454) and TagMan Gene Expression Assay Probe (Thermo Fisher Scientific) were used. […] In the gene expression analysis, relative quantification was performed according to the ΔΔCt method (Delta Delta Ct method). The results of analysis according to the ΔΔCt method show the amount of a gene expressed by control cells under the conditions of “no cell culture supplement, flat-bottom 2D growth, day 0” as “1.0” in relative terms, and the increase rate of the expression level on day 20 of spheroid proliferation was determined by comparison (FIG. 6).
# [3] = tested on: healthy human neonatal fibroblasts; test: Anti-NANOG immunostaining of cells dissociated from neonatal fibroblast spheroids; conditions: spheroids day 20 dissociated with Accutase, 24 h further culture; nuclei of some cells, majority NANOG-negative
# Protocol: To detect stem cells induced in fibroblast spheroids, immunostaining with a fluorescent dye-labeled antibody was used, and stem cells in the spheroid-forming cells were detected. An aqueous solution of the polypeptide represented by formula (1) (0.125%) (cell culture supplement) was added to a commercial polystyrene-made 96-well round-bottom culture vessel (Nunclon Delta 96U Bottom, Thermo Fisher Scientific) at 100 μL/well to complete coating treatment with the cell culture supplement in the same manner as in Example 2. Fibroblasts were maintained and cultured in a serum-free medium (Fujifilm Wako Pure Chemical Corporation, DMEM/F12 medium, human serum albumin recombinant 0.5 mg/mL, human transferrin recombinant 10 μg/mL, basic-FGF 5 ng/ml, and insulin 2.5 μg/mL). Fibroblasts floating in the medium were seeded in the culture vessel coated with the cell culture supplement at 2×10^4 cells/well/100 μL and cultured at 37° C. under 5% CO2 conditions. On day 20 after the start of culture, spheroids were aseptically collected from the 96-well round-bottom culture vessel. […] For the fluorescence-labeled antibody, NL493 fluorescent dye-labeled anti-NANOG antibody (fluorescent green, R&D systems) was used, and observation was performed with a fluorescence microscope.
substance,measurement,setting,value
(Pro-Hyp-Gly)n [cell culture supplement],"NANOG stem cell marker protein, fluorescence (green)","[1]; spheroids day 20, NL493-labeled anti-NANOG antibody",detected
same,"SOX2 stem cell marker protein, fluorescence (orange)","[1]; spheroids day 20, NL557-labeled anti-SOX2 antibody",detected
same,"OCT4 stem cell marker protein, fluorescence (red)","[1]; spheroids day 20, NL637-labeled anti-OCT4 antibody",detected
same,NANOG gene expression level (increase vs control),[2],9.1 fold
same,OCT4 gene expression level (increase vs control),[2],5.1 fold
same,SOX2 gene expression level (increase vs control),[2],34.4 fold
same,nuclear NANOG protein in cells dispersed from spheroids,[3],strong NANOG antibody-positive green fluorescence
